# Reference: ChEMBL document CHEMBL3102722, “Diarylacylhydrazones: Clostridium-selective antibacterials with activity against stationary-phase cells” (Bioorg Med Chem Lett, 2014)
# The source made the active and inactive calls. No cut-off for these calls is given here.
# Key:
# [1] = test system: Clostridioides difficile; assay: Antibacterial activity against Clostridium difficile CD196 assessed as growth inhibition after 20 to 24 hrs; assay type: functional
# [2] = test system: Bifidobacterium longum; assay: Antibacterial activity against Bifidobacterium longum ATCC BAA-999 assessed as growth inhibition after 20 to 24 hrs; assay type: functional
# [3] = Cytotoxicity against human HepG2 cells assessed as concentration required to decrease cell viability incubated for 24 hrs followed by compound washout measured after 18 hrs by resazurin dye-based assay; settings: read-out: Activity
# [4] = test system: FaDu; assay: Cytotoxicity against human FADU cells assessed as concentration required to decrease cell viability incubated for 24 hrs followed by compound washout measured after 18 hrs by resazurin dye-based assay
# [5] = test system: Staphylococcus aureus; assay: Antibacterial activity against Staphylococcus aureus 8325-4 assessed as growth inhibition after 20 to 24 hrs; assay type: functional
# [6] = test system: Limosilactobacillus reuteri; assay: Antibacterial activity against Lactobacillus reuteri ATCC 23272 assessed as growth inhibition after 20 to 24 hrs; assay type: functional
# [7] = test system: Clostridium perfringens; assay: Antibacterial activity against Clostridium perfringens ATCC 13124 assessed as growth inhibition after 20 to 24 hrs; assay type: functional
# [8] = test system: Escherichia coli; assay: Antibacterial activity against Escherichia coli ATCC 700927 assessed as growth inhibition after 20 to 24 hrs; assay type: functional
# [9] = test system: Streptococcus mutans; assay: Antibacterial activity against Streptococcus mutans ATCC 700610 assessed as growth inhibition after 20 to 24 hrs; assay type: functional
# [10] = test system: Clostridioides difficile; assay: Antibacterial activity against stationary phase of Clostridium difficile CD196 assessed as cell killing at 1 to 20 X MIC after 3 to 6 hrs; assay type: functional
# [11] = test system: Enterococcus faecalis; assay: Antibacterial activity against Enterococcus faecalis ATCC 47077 assessed as growth inhibition after 20 to 24 hrs; assay type: functional
# [12] = test system: Bacteroides fragilis; assay: Antibacterial activity against Bacteroides fragilis ATCC 25285 assessed as growth inhibition after 20 to 24 hrs; assay type: functional; settings: NCTC 9343
# [13] = test system: Bacteroides thetaiotaomicron; assay: Antibacterial activity against Bacteroides thetaiotaomicron ATCC 29148 assessed as growth inhibition after 20 to 24 hrs; assay type: functional
# [14] = test system: Lacticaseibacillus casei; assay: Antibacterial activity against Lactobacillus casei ATCC 334 assessed as growth inhibition after 20 to 24 hrs; assay type: functional
# [15] = test system: Clostridioides difficile; assay: Bactericidal activity against Clostridium difficile CD196 after 20 to 24 hrs; assay type: functional; settings: read-out: MBC99.9
Compound,MIC [1] [µg/mL],MIC [2] [µg/mL],MCC at 24 h [3] [µg/mL],Activity [4] [µg/mL],MIC [5] [µg/mL],MIC [6] [µg/mL],MIC [7] [µg/mL],MIC [8] [µg/mL],MIC [9] [µg/mL],Activity [10],MIC [11] [µg/mL],MIC [12] [µg/mL],MIC [13] [µg/mL],MIC [14] [µg/mL],MBC [15] [µg/mL]
Cc1ncc([N+](=O)[O-])n1CCO [METRONIDAZOLE],1.56,≤ 0.78,> 200,> 200,> 50,> 50,3.13,> 50,> 50,inactive,> 50,≤ 0.78,≤ 0.78,> 50,
O=C(N/N=C/c1c(O)ccc2ccccc12)c1ccc([N+](=O)[O-])cc1,> 50,,,,,,,,,,,,,,
N#CC(C#N)=NNc1cccc(Cl)c1 [CARBONYL CYANIDE M-CHLOROPHENYLHYDRAZONE],1.56,3.25,50,50,> 50,> 50,> 50,> 50,> 50,Active,> 50,> 50,> 50,> 50,
Cc1ccc(C(=O)N(C)/N=C/c2c(O)ccc3ccccc23)cc1,> 50,> 50,,,> 50,> 50,> 50,> 50,> 50,,> 50,> 50,> 50,> 50,
COc1cccc(/C=N/NC(=O)c2ccc(C)cc2)c1O,12.5,> 50,,,> 50,> 50,6.25,> 50,1.56,,> 50,> 50,> 50,> 50,
Oc1ccc2ccccc2c1/C=N/Nc1ccccc1,> 50,,,,,,,,,,,,,,
O=C(N/N=C/c1c(OCc2cccc(Br)c2)ccc2ccccc12)c1ccccc1,> 50,,,,,,,,,,,,,,
O=C(N/N=C/c1c(O)ccc2ccccc12)c1ccc(Cl)cc1,6.25,> 50,,,> 50,> 50,≤ 0.78,> 50,> 50,,> 50,12.5,12.5,> 50,
Cc1cccc(/C=N/NC(=O)c2ccc(-c3ccccc3)cc2)c1,> 50,,,,,,,,,,,,,,
Cc1ccc(C(=O)N/N=C/c2ccc(O)c3ccccc23)cc1,> 50,> 50,,,> 50,> 50,> 50,> 50,> 50,,> 50,> 50,> 50,> 50,
O=C(CO)N/N=C/c1cccc2ccccc12,> 50,,,,,,,,,,,,,,
O=C(N/N=C/c1c(O)ccc2ccccc12)c1cc([N+](=O)[O-])cc([N+](=O)[O-])c1,> 50,,,,,,,,,,,,,,
Cc1ccc(C(=O)N/N=C/c2c(O)ccc3ccccc23)cc1,6.25,> 50,> 100,> 100,> 50,> 50,1.56,> 50,> 50,Active,> 50,12.5,25,> 50,6.25
NC(=O)N/N=C/c1c(O)ccc2ccccc12,> 50,,,,,,,,,,,,,,
O=C(N/N=C/c1c(O)ccc2ccccc12)c1ccccc1,6.25,,,,,,,,,,,,,,
Oc1c(Cl)c(Cl)c(Cl)c(Cl)c1Cl [PENTACHLOROPHENOL],50,12.5,,,< 0.78,50,6.25,> 50,25,,> 50,6.25,6.25,50,
O=C(N/N=C/c1c(O)ccc2ccccc12)c1cc2ccccc2cc1O,12.5,,,,,,,,,,,,,,
COc1ccc2ccccc2c1/C=N/NC(=O)c1ccc(C)cc1,> 50,> 50,,,> 50,> 50,> 50,> 50,> 50,,> 50,> 50,> 50,> 50,
